Data on 19 compounds can be found in patent US7982042B2, “Thiozanthene derivatives as delta-opioid modulators” (priority 2003, dated 2011).

Read-outs that look alike come from different tables or passages of the source.

The target in assay [1] is T1, Rat brain delta opioid receptor (Rattus norvegicus, UniProt P33533).
T1 construct: from tissue; host or cells: rat brain
Kind of assay: Rat brain delta opioid receptor binding.

Assay [2] addresses T2, Rat brain mu opioid receptor (Rattus norvegicus, UniProt P33535).
T2 construct: from tissue; host or cells: forebrain of male Sprague Dawley rats
Kind of assay: Rat brain mu opioid receptor binding assay ([3H]DAMGO). The protocol: • Procedure: Male, Sprague Dawley (150-250 g, VAF, Charles River, Kingston, N.Y.) are killed by CO2, and their brains removed and placed immediately in ice cold Tris HCl buffer (50 mM, pH 7.4). The forebrains are separated from the remainder of the brain by a coronal transection, beginning dorsally at the colliculi and passing ventrally through the midbrain-pontine junction. After dissection, the forebrains are homogenized in Tris buffer in a Teflon®-glass homogenizer. The homogenate is diluted to a concentration of 1 g of forebrain tissue per 80 mL Tris and centrifuged at 39,000×g for 10 min. The pellet is resuspended in the same volume of Tris buffer containing 5 mM MgCl2 with several brief pulses from a Polytron homogenizer. This particulate preparation is used for the mu-opioid binding assays. […] Kd and Ki values are calculated using GraphPad PRISM data analysis program.

Assay [3] deals with T3, human delta opioid receptor (Homo sapiens, UniProt P41143).
T3 construct: purchased Receptor Biology, Inc. (Baltimore, Md.); host or cells: CHO cells expressing the human delta receptor (membranes)
Kind of assay: [35S]GTPγS binding assay in CHO-hδ cell membranes. To be noted: for inhibition at 10 µM: read-out: inhibition of GTP binding induced with 1 uM DPDPE. The format is biochemical. The protocol: CHO-hδ cell membranes are purchased from Receptor Biology, Inc. (Baltimore, Md.). 10 mg/ml of membrane protein is suspended in 10 mM TRIS-HC pH 7.2, 2 mM EDTA, 10% sucrose.
Membranes are maintained at 4-8° C. 1 ml of membranes is added into 15 ml cold binding assay buffer. The assay buffer contained 50 mM HEPES, pH 7.6, 5 mM MgCl2, 100 mM NaCl, 1 mM DTT and 1 mM EDTA. The membrane suspension is homogenized with a Polytron 2 times and centrifuged at 3000 rpm for 10 min. The supernatant is then centrifuged at 18,000 rpm for 20 min. The pellet is saved in a tube and 10 ml assay buffer is added into the tube. The pellet and buffer are mixed with a Polytron.
The pellet membranes (20 μg/ml) are preincubated with SPA (10 mg/ml) at 25° C. for 45 min in the assay buffer. The SPA (5 mg/ml) coupled with membranes (10 μg/ml) is then incubated with 0.5 nM [^35S]GTPgS in the same HEPES buffer containing 50 μM GDP in total volume of 200 μl. Increasing concentrations of receptor agonists are used to stimulate [^35S]GTPgS binding. The basal binding is tested in the absence of agonists and non-specific binding is tested in the presence of 10 μM unlabeled GTP S. The data are analyzed on a Top counter.

Assay [4] has as its target T4, human mu opioid receptor (Homo sapiens, UniProt P35372).
T4 construct: purchased Receptor Biology, Inc. (Baltimore, Md.); host or cells: CHO cells expressing the human mu receptor (membranes)
Kind of assay: [35S]GTPγS binding assay in CHO-hμ cell membranes. The format is biochemical. To be noted: inhibition relative to 1 uM DAMGO; for inhibition at 10 µM: read-out: hMOR GTPγS % I @10 μM. The protocol:
CHO-hμ cell membranes are purchased from Receptor Biology, Inc. (Baltimore, Md.). About 10 mg/ml of membrane protein is suspended in 10 mM TRIS-HC pH 7.2, 2 mM EDTA, 10% sucrose.
Membranes are maintained at 4-8° C. 1 ml of membranes is added into 15 ml cold binding assay buffer. The assay buffer contains 50 mM HEPES, pH 7.6, 5 mM MgCl2, 100 mM NaCl, 1 mM DTT and 1 mM EDTA. The membrane suspension is homogenized with a Polytron 2 times and centrifuged at 3000 rpm for 10 min. The supernatant is then centrifuged at 18,000 rpm for 20 min. The pellet is saved in a tube and 10 ml assay buffer is added to the tube. The pellet and buffer are mixed with a Polytron.
The pellet membranes (20 μg/ml) are preincubated with SPA (10 mg/ml) at 25 C′ for 45 min in the assay buffer. The SPA (5 mg/ml) coupled with membranes (10 μg/ml) is then incubated with 0.5 nM [^35S]GTPgS in the same HEPES buffer containing 50 μM GDP in total volume of 200 μl. Increasing concentrations of receptor agonists are used to stimulate [^35S]GTPgS binding. The basal binding is tested in the absence of agonists and non-specific binding is tested in the present 10 μM unlabeled GTPγS. The data are analyzed on a Top counter.
% of Basal=(stimulate−non-specific)*100/(basal−non specific). % inhibition value values are calculated using a formula, % Inhibition=(% Basal of 1 uM DAMGO−% Basal of compound)*100/(% Basal of 1 uM DAMGO−100)

The mark [5] stands for this setting: human delta opioid receptor GTPγS functional assay, read-out: hDOR GTPγS EC50.
Setting [6] is: hDOR GTPγS EC50, human delta opioid receptor GTPγS functional assay.

T2 sequence (P33535 whole entry): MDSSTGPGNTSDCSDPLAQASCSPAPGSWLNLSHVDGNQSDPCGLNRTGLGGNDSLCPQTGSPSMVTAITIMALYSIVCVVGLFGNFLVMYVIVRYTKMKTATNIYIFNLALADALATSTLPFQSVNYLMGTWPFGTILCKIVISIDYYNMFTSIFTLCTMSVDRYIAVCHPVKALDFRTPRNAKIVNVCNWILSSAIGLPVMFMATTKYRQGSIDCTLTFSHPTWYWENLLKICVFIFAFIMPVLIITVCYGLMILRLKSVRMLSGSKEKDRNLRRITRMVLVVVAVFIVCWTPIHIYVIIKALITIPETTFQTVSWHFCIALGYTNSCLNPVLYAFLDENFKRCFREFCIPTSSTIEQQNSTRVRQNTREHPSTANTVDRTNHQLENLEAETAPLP
T3 sequence (P41143 whole entry): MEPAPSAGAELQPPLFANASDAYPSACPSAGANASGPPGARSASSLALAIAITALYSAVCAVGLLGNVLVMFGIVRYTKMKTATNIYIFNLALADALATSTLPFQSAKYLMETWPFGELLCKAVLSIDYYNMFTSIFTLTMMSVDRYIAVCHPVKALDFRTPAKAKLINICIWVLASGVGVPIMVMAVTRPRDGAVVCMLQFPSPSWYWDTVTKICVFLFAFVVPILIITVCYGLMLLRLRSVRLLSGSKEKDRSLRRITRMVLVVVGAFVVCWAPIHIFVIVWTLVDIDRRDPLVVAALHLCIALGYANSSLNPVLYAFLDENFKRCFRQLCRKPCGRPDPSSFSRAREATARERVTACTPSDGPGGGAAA
T1 sequence (P33533 whole entry): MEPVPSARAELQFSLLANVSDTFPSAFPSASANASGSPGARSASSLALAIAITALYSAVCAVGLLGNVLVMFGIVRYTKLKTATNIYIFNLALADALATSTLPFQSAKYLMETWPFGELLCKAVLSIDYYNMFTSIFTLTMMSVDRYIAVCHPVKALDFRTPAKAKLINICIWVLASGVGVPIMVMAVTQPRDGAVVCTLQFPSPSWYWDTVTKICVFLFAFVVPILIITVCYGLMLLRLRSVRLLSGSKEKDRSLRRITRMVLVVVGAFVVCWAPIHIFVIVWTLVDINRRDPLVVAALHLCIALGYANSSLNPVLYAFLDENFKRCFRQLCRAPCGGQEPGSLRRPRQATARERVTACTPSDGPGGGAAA
T4 sequence (P35372 whole entry): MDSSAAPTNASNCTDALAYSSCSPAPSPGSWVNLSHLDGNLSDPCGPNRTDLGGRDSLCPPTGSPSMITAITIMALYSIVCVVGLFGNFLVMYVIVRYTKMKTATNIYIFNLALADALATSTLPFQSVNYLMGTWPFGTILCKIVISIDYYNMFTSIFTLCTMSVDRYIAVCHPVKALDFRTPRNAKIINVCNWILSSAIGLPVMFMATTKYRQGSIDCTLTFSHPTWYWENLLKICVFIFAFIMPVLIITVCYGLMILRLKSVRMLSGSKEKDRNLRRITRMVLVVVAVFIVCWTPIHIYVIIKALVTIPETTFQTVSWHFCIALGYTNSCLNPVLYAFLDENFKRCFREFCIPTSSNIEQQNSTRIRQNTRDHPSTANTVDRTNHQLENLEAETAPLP

Take `CCN(CC)C(=O)c1ccc2c(c1)OCc1ccccc1C2=C1CCN(Cc2ccc3c(c2)OCO3)CC1` [Compound 4, 11-(1-Benzo[1,3]dioxol-5-ylmethyl-piperidin-4-ylidene)-6,11-dihydro-dibenzo[b,e]oxepine-3-carboxylic acid diethylamide]: the Ki in assay [1] (rDOR Ki) stood at 0.39 nM; in assay [2] (read-out: rMOR Ki), 301 nM. Also, the EC50 in assay [3] (setting [5]) turned out to be 552 nM. Moreover, in assay [4], the inhibition at 10 µM turned out to be 9%.

On to `CCN(CC)C(=O)c1ccc2c(c1)Oc1ccccc1C2=C1CCN(C=S)CC1` [Compound 37, 9-(1-Thioformyl-piperidin-4-ylidene)-9H-xanthene-3-carboxylic acid diethylamide], for which the Ki in assay [1] (rDOR Ki) is 2.02 nM; in assay [2] (rMOR Ki), above 10000 nM. Further, the EC50 in assay [3] (setting [6]) was determined as 921 nM. Moreover, in assay [4], the inhibition at 10 µM was 5%.

For `C=CCN1CCC(=C2c3ccccc3COc3cc(C(=O)N(CC)CC)ccc32)CC1` [Compound 6, 11-(1-Allyl-piperidin-4-ylidene)-6,11-dihydro-dibenzo[b,e]oxepine-3-carboxylic acid diethylamide], the Ki in assay [1] (rDOR Ki) was determined as 4.25 nM; in assay [2] (read-out: rMOR Ki), 7910 nM. Further, the EC50 in assay [3] (setting [5]) turned out to be 128 nM.

Take `CCN(CC)C(=O)c1ccc2c(c1)Oc1ccccc1C2=C1CCN(Cc2ccoc2)CC1` [Compound 28, 9-(1-Furan-3-ylmethyl-piperidin-4-ylidene)-9H-xanthene-3-carboxylic acid diethylamide]: the Ki in assay [1] (rDOR Ki) worked out at 0.07 nM; in assay [2] (rMOR Ki), 811 nM. The same compound yielded an EC50 in assay [3] (setting [6]) of 70.3 nM. Moreover, the inhibition at 10 µM in assay [4] is 24%.

For `C=CCN1C2CCC1CC(=C1c3ccccc3Oc3cc(C(=O)N(CC)CC)ccc31)C2` [Compound 38, 9-(8-Allyl-8-aza-bicyclo[3.2.1]oct-3-ylidene)-9H-xanthene-3-carboxylic acid diethylamide], the Ki in assay [1] (rDOR Ki) is 31.8 nM; in assay [2] (rMOR Ki) it was 5520 nM. This compound came in with an EC50 in assay [3] (setting [6]) of 342 nM.

For `CCN(CC)C(=O)c1ccc2c(c1)Oc1ccccc1C2=C1CC2CCC(C1)N2CCOC` [Compound 39, 9-[8-(2-Methoxy-ethyl)-8-aza-bicyclo[3.2.1]oct-3-ylidene]-9H-xanthene-3-carboxylic acid diethylamide], the Ki in assay [1] (rDOR Ki) is 8.43 nM; in assay [2] (rMOR Ki), 1680 nM. For the same compound, in assay [3] (setting [6]), a half-maximal response (EC50) required 94.9 nM.

Consider `CCN(CC)C(=O)c1ccc2c(c1)Sc1ccccc1C2=C1CC2CCC(C1)N2Cc1ccc2c(c1)OCO2` [Compound 47, 9-(8-Benzo[1,3]dioxol-5-ylmethyl-8-aza-bicyclo[3.2.1]oct-3-ylidene)-9H-thioxanthene-3-carboxylic acid diethylamide], for which the Ki was 4.5 nM in assay [1] (rDOR Ki) and 48.3 nM in assay [2] (rMOR Ki). Besides, the EC50 in assay [3] (setting [5]) was found to be 125 nM. Further, the inhibition at 10 µM in assay [4] came out at 59.2%.

For the compound `CCN(CC)C(=O)c1ccc2c(c1)Oc1ccccc1C2=C1CCN(Cc2ccccn2)CC1` [Compound 29], the figures for the Ki in assay [1] (rDOR Ki) and in assay [2] (rMOR Ki) were 0.05 nM and 362 nM, respectively. Besides, the midpoint of the response in assay [3] (setting [6]), the EC50, lay at 31.6 nM. Further, the inhibition at 10 µM in assay [4] amounted to 34%.

On to `CCN(CC)C(=O)c1ccc2c(c1)OCc1ccccc1C2=C1CCN(CCc2ccccc2)CC1` [Compound 5, 11-(1-Phenylethylpiperidin-4-ylidene)-6,11-dihydro-dibenzo[b,e]oxepine-3-caroboxylic diethylamide], for which the values for the Ki in assay [1] (rDOR Ki) and in assay [2] (read-out: rMOR Ki) were 25.3 nM and 1290 nM, respectively. The half-maximal effective concentration (EC50) in assay [3] (setting [5]) was above 10000 nM. Further, the inhibition at 10 µM in assay [3] is 19%.

Consider `CCN(CC)C(=O)c1ccc2c(c1)Oc1ccccc1C2=C1CCN(CCc2ccccc2)CC1` [Compound 22], for which the Ki turned out to be 45.4 nM in assay [1] (rDOR Ki) and 2130 nM in assay [2] (read-out: rMOR Ki). In addition, the EC50 in assay [3] (setting [5]) was above 10000 nM. In assay [4], the inhibition at 10 µM came out at 2%.

Regarding `C=CCN1CCC(=C2c3ccccc3Oc3cc(C(=O)N(CC)CC)ccc32)CC1` [Compound 8, 9-(1-Allyl-piperidin-4-ylidene)-9H-xanthene-3-carboxylic acid diethylamide], the Ki amounted to 2.1 nM in assay [1] (rDOR Ki) and 2820 nM in assay [2] (read-out: rMOR Ki). In assay [3] (setting [5]), the EC50 was found to be 620 nM. For the same compound, the inhibition at 10 µM in assay [4] came to 1%.

For `CCN(CC)C(=O)c1ccc2c(c1)Sc1ccccc1C2=C1CC2CCC(C1)N2CC1CC1` [Compound 49], the Ki is 25 nM in assay [1] (rDOR Ki) and above 100 nM in assay [2] (rMOR Ki). In assay [3] (setting [6]), this compound returned an EC50 of 252 nM.

For `CCN(CC)C(=O)c1ccc2c(c1)Sc1ccccc1C2=C1CC2CCC(C1)N2CCCSC` [Compound 50], the Ki in assay [1] (rDOR Ki) was 10.2 nM; in assay [2] (rMOR Ki), above 100 nM. For the same compound, the EC50 in assay [3] (setting [6]) came to 236 nM.

With `CCN(CC)C(=O)c1ccc2c(c1)Sc1ccccc1C2=C1CC2CCC(C1)N2` [Compound 48, 9-(8-Aza-bicyclo[3.2.1]oct-3-ylidene)-9H-thioxanthene-3-carboxylic acid diethylamide], the Ki in assay [1] (rDOR Ki) was 0.9 nM; in assay [2] (rMOR Ki) it was above 100 nM. Also, the EC50 in assay [3] (setting [6]) was found to be 18.8 nM.

Regarding `CCN(CC)C(=O)c1ccc2c(c1)Oc1ccccc1C2=C1CCN(C)CC1` [Compound 7, 9-(1-Methyl-piperidin-4-ylidene)-9H-xanthene-3-carboxylic acid diethylamide], the Ki was found to be 25.7 nM in assay [1] (rDOR Ki) and 9190 nM in assay [2] (rMOR Ki). The inhibition at 10 µM in assay [4] came to 1%.

Consider `CCN(CC)C(=O)c1ccc2c(c1)OCc1ccccc1C2=C1CCN(C)CC1` [Compound 1, 11-(1-Methyl-piperidin-4-ylidene)-6,11-dihydro-dibenzo[b,e]oxepine-3-carboxylic acid diethylamide], for which the figures for the Ki in assay [1] (rDOR Ki) and in assay [2] (read-out: rMOR Ki) were 25.5 nM and 6410 nM, respectively. Besides, the EC50 in assay [3] (setting [5]) is above 10000 nM. Besides, the inhibition at 10 µM in assay [3] worked out at 61%.

With `CCN(CC)C(=O)c1ccc2c(c1)Oc1ccccc1C2=C1CC2CCC(C1)N2C` [Compound 23, 9-(8-Methyl-8-aza-bicyclo[3.2.1]oct-3-ylidene)-9H-xanthene-3-carboxylic acid diethylamide], the inhibitory constant (Ki) in assay [1] (rDOR Ki) was 48.4 nM; in assay [2] (rMOR Ki), 5560 nM. In assay [3] (setting [6]), this compound registered an EC50 of 245 nM.

For `CCN(CC)C(=O)c1ccc2c(c1)Sc1ccccc1C2=C1CC2CCC(C1)N2CCO` [Compound 51, 9-[8-(2Hydroxy-ethyl)-8-aza-bicyclo[3.2.1]oct-3-ylidene]-9H-thioxanthene-3-carboxylic acid diethylamide], the Ki in assay [1] (rDOR Ki) is 4.85 nM; in assay [2] (rMOR Ki) it was above 100 nM. The compound further registered an EC50 in assay [3] (setting [6]) of 62.8 nM.

`CCNC(=O)c1ccc2c(c1)OCc1ccccc1C2=C1CC2CCC(C1)N2CCc1ccccc1` [Compound 26, 1-(8-Phenethyl-8-aza-bicyclo[3.2.1]oct-3-ylidene)-6,11-dihydro-dibenzo[b,e]oxepine-3-carboxylic acid ethylamide]: the Ki came to 5480 nM in assay [1] (read-out: rDOR Ki) and 15.6 nM in assay [2] (read-out: rMOR Ki). In addition, the “hMOR GTPγS % I @10 μM” value in assay [4] is 41.00%.
